Molecular target: Aβ42 (Homo sapiens, UniProt P05067)
Experiment: Th-T (thioflavin-T) assay of Aβ42 aggregation
Assay type: biochemical
Conditions: for Th-T assay plate reading, mean of three wells (Supplementary Fig. 47): source data, Ab alone and No Ab as controls

Aβ42, sequence (P05067 672-713): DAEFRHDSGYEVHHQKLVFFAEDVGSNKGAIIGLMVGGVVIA

SMILES: C=C1CCC2C3(C)CC(C=C(C)C)OC3CCC2(C)C1Cc1c(OC)oc(C)c(C)c1=O (centres unmarked) [Compound 23]
- Th-T fluorescence, mean of three wells (Aβ42 aggregation time course, reading M117): 3.821
- Th-T fluorescence, mean of three wells (Aβ42 aggregation time course, reading M118): 3.829
- Th-T fluorescence, mean of three wells (Aβ42 aggregation time course, reading M119): 3.818
- Th-T fluorescence, mean of three wells (Aβ42 aggregation time course, reading M120): 3.827
- Th-T fluorescence, mean of three wells (Aβ42 aggregation time course, reading M121): 3.807
- Th-T fluorescence, mean of three wells (Aβ42 aggregation time course, reading M122): 3.851
- Th-T fluorescence, mean of three wells (Aβ42 aggregation time course, reading M123): 3.84
- Th-T fluorescence, mean of three wells (Aβ42 aggregation time course, reading M124): 3.827
- Th-T fluorescence, mean of three wells (Aβ42 aggregation time course, reading M125): 3.803
- Th-T fluorescence, mean of three wells (Aβ42 aggregation time course, reading M126): 3.803
- Th-T fluorescence, mean of three wells (Aβ42 aggregation time course, reading M127): 3.811
- Th-T fluorescence, mean of three wells (Aβ42 aggregation time course, reading M128): 3.832
- Th-T fluorescence, mean of three wells (Aβ42 aggregation time course, reading M129): 3.806
- Th-T fluorescence, mean of three wells (Aβ42 aggregation time course, reading M130): 3.7777
- Th-T fluorescence, mean of three wells (Aβ42 aggregation time course, reading M131): 3.7932
- Th-T fluorescence, mean of three wells (Aβ42 aggregation time course, reading M132): 3.801
- Th-T fluorescence, mean of three wells (Aβ42 aggregation time course, reading M133): 3.762
- Th-T fluorescence, mean of three wells (Aβ42 aggregation time course, reading M134): 3.777
- Th-T fluorescence, mean of three wells (Aβ42 aggregation time course, reading M135): 3.785
- Th-T fluorescence, mean of three wells (Aβ42 aggregation time course, reading M136): 3.777
- Th-T fluorescence, mean of three wells (Supplementary Fig. 47, reading M137): 3.7533
- Th-T fluorescence, mean of three wells (Supplementary Fig. 47, reading M138): 3.768
- Th-T fluorescence, mean of three wells (Supplementary Fig. 47, reading M139): 3.732
- Th-T fluorescence, mean of three wells (Supplementary Fig. 47, reading M140): 3.756
- Th-T fluorescence, mean of three wells (Supplementary Fig. 47, reading M141): 3.727
- Th-T fluorescence, mean of three wells (Supplementary Fig. 47, reading M142): 3.722
- Th-T fluorescence, mean of three wells (Supplementary Fig. 47, reading M143): 3.7233
- Th-T fluorescence, mean of three wells (Supplementary Fig. 47, reading M144): 3.718
- Th-T fluorescence, mean of three wells (Supplementary Fig. 47, reading M145): 3.718
- Th-T fluorescence, mean of three wells (Supplementary Fig. 47 source data, measurement M37 of time course): 3.91
- Th-T fluorescence, mean of three wells (Supplementary Fig. 47 source data, measurement M38 of time course): 3.88
- Th-T fluorescence, mean of three wells (Supplementary Fig. 47 source data, measurement M39 of time course): 3.926
- Th-T fluorescence, mean of three wells (Supplementary Fig. 47 source data, measurement M40 of time course): 3.945
- Th-T fluorescence, mean of three wells (Supplementary Fig. 47 source data, measurement M41 of time course): 3.951
- Th-T fluorescence, mean of three wells (Supplementary Fig. 47 source data, measurement M42 of time course): 3.943
- Th-T fluorescence, mean of three wells (Supplementary Fig. 47 source data, measurement M43 of time course): 3.96
- Th-T fluorescence, mean of three wells (Supplementary Fig. 47 source data, measurement M44 of time course): 3.975
- Th-T fluorescence, mean of three wells (Supplementary Fig. 47 source data, measurement M45 of time course): 3.993
- Th-T fluorescence, mean of three wells (Supplementary Fig. 47 source data, measurement M46 of time course): 3.9875
- Th-T fluorescence, mean of three wells (Supplementary Fig. 47 source data, measurement M47 of time course): 4.0057
- Th-T fluorescence, mean of three wells (Supplementary Fig. 47 source data, measurement M48 of time course): 4.03
- Th-T fluorescence, mean of three wells (Supplementary Fig. 47 source data, measurement M49 of time course): 4.026
- Th-T fluorescence, mean of three wells (Supplementary Fig. 47 source data, measurement M50 of time course): 3.972
- Th-T fluorescence, mean of three wells (Supplementary Fig. 47 source data, measurement M51 of time course): 4.006
- Th-T fluorescence, mean of three wells (Supplementary Fig. 47 source data, measurement M52 of time course): 4
- Th-T fluorescence, mean of three wells (Supplementary Fig. 47 source data, measurement M53 of time course): 3.995
- Th-T fluorescence, mean of three wells (Supplementary Fig. 47 source data, measurement M54 of time course): 4.005
- Th-T fluorescence, mean of three wells (Supplementary Fig. 47 source data, measurement M55 of time course): 4.01
- Th-T fluorescence, mean of three wells (Supplementary Fig. 47 source data, measurement M56 of time course): 4.026
- Th-T assay plate reading, mean of three wells (Supplementary Fig. 47) (measurement M1): 0.1917
- Th-T assay plate reading, mean of three wells (Supplementary Fig. 47) (measurement M2): 0.1872
- Th-T assay plate reading, mean of three wells (Supplementary Fig. 47) (measurement M3): 0.2017
- Th-T assay plate reading, mean of three wells (Supplementary Fig. 47) (measurement M4): 0.2278
- Th-T assay plate reading, mean of three wells (Supplementary Fig. 47) (measurement M5): 0.2368
- Th-T assay plate reading, mean of three wells (Supplementary Fig. 47) (measurement M6): 0.2919
- Th-T assay plate reading, mean of three wells (Supplementary Fig. 47) (measurement M7): 0.3712
- Th-T assay plate reading, mean of three wells (Supplementary Fig. 47) (measurement M8): 0.4061
- Th-T assay plate reading, mean of three wells (Supplementary Fig. 47) (measurement M9): 0.4563
- Th-T assay plate reading, mean of three wells (Supplementary Fig. 47) (measurement M10): 0.5903
- Th-T assay plate reading, mean of three wells (Supplementary Fig. 47) (measurement M11): 0.9948
- Th-T assay plate reading, mean of three wells (Supplementary Fig. 47) (measurement M12): 1.768
- Th-T assay plate reading, mean of three wells (Supplementary Fig. 47) (measurement M13): 2.41
- Th-T assay plate reading, mean of three wells (Supplementary Fig. 47) (measurement M14): 2.789
- Th-T assay plate reading, mean of three wells (Supplementary Fig. 47) (measurement M15): 2.988
- Th-T assay plate reading, mean of three wells (Supplementary Fig. 47) (measurement M16): 3.116
- Th-T fluorescence, mean of three wells (reading M17, Supplementary Fig. 47 source data): 3.2228
- Th-T fluorescence, mean of three wells (reading M18, Supplementary Fig. 47 source data): 3.274
- Th-T fluorescence, mean of three wells (reading M19, Supplementary Fig. 47 source data): 3.356
- Th-T fluorescence, mean of three wells (reading M20, Supplementary Fig. 47 source data): 3.42
- Th-T fluorescence, mean of three wells (reading M21, Supplementary Fig. 47 source data): 3.466
- Th-T fluorescence, mean of three wells (reading M22, Supplementary Fig. 47 source data): 3.5211
- Th-T fluorescence, mean of three wells (reading M23, Supplementary Fig. 47 source data): 3.558
- Th-T fluorescence, mean of three wells (reading M24, Supplementary Fig. 47 source data): 3.581
- Th-T fluorescence, mean of three wells (reading M25, Supplementary Fig. 47 source data): 3.61
- Th-T fluorescence, mean of three wells (reading M26, Supplementary Fig. 47 source data): 3.64
- Th-T fluorescence, mean of three wells (reading M27, Supplementary Fig. 47 source data): 3.697
- Th-T fluorescence, mean of three wells (reading M28, Supplementary Fig. 47 source data): 3.7304
- Th-T fluorescence, mean of three wells (reading M29, Supplementary Fig. 47 source data): 3.755
- Th-T fluorescence, mean of three wells (reading M30, Supplementary Fig. 47 source data): 3.765
- Th-T fluorescence, mean of three wells (reading M31, Supplementary Fig. 47 source data): 3.799
- Th-T fluorescence, mean of three wells (reading M32, Supplementary Fig. 47 source data): 3.833
- Th-T fluorescence, mean of three wells (reading M33, Supplementary Fig. 47 source data): 3.798
- Th-T fluorescence, mean of three wells (reading M34, Supplementary Fig. 47 source data): 3.8608
- Th-T fluorescence, mean of three wells (reading M35, Supplementary Fig. 47 source data): 3.851
- Th-T fluorescence, mean of three wells (reading M36, Supplementary Fig. 47 source data): 3.863
- Th-T fluorescence, mean of three wells (time course, reading M57): 4.004
- Th-T fluorescence, mean of three wells (time course, reading M58): 4.031
- Th-T fluorescence, mean of three wells (time course, reading M59): 4.01
- Th-T fluorescence, mean of three wells (time course, reading M60): 3.981
- Th-T fluorescence, mean of three wells (time course, reading M61): 4.001
- Th-T fluorescence, mean of three wells (time course, reading M62): 4.022
- Th-T fluorescence, mean of three wells (time course, reading M63): 4.022
- Th-T fluorescence, mean of three wells (time course, reading M64): 3.993
- Th-T fluorescence, mean of three wells (time course, reading M65): 3.998
- Th-T fluorescence, mean of three wells (time course, reading M66): 4.007
- Th-T fluorescence, mean of three wells (time course, reading M67): 3.974
- Th-T fluorescence, mean of three wells (time-course reading M97, Supplementary Fig. 47 source data): 3.915
- Th-T fluorescence, mean of three wells (time-course reading M98, Supplementary Fig. 47 source data): 3.9
- Th-T fluorescence, mean of three wells (time-course reading M99, Supplementary Fig. 47 source data): 3.901
- Th-T fluorescence, mean of three wells (time-course reading M100, Supplementary Fig. 47 source data): 3.914
- Th-T fluorescence, mean of three wells (time-course reading M101, Supplementary Fig. 47 source data): 3.9074
- Th-T fluorescence, mean of three wells (time-course reading M102, Supplementary Fig. 47 source data): 3.878
- Th-T fluorescence, mean of three wells (time-course reading M103, Supplementary Fig. 47 source data): 3.8886
- Th-T fluorescence, mean of three wells (time-course reading M104, Supplementary Fig. 47 source data): 3.914
- Th-T fluorescence, mean of three wells (time-course reading M105, Supplementary Fig. 47 source data): 3.865
- Th-T fluorescence, mean of three wells (time-course reading M106, Supplementary Fig. 47 source data): 3.9
- Th-T fluorescence, mean of three wells (time-course reading M107, Supplementary Fig. 47 source data): 3.909
- Th-T fluorescence, mean of three wells (time-course reading M108, Supplementary Fig. 47 source data): 3.872
- Th-T fluorescence, mean of three wells (time-course reading M109, Supplementary Fig. 47 source data): 3.882
- Th-T fluorescence, mean of three wells (time-course reading M110, Supplementary Fig. 47 source data): 3.8573
- Th-T fluorescence, mean of three wells (time-course reading M111, Supplementary Fig. 47 source data): 3.873
- Th-T fluorescence, mean of three wells (time-course reading M112, Supplementary Fig. 47 source data): 3.8761
- Th-T fluorescence, mean of three wells (time-course reading M113, Supplementary Fig. 47 source data): 3.855
- Th-T fluorescence, mean of three wells (time-course reading M114, Supplementary Fig. 47 source data): 3.858
- Th-T fluorescence, mean of three wells (time-course reading M115, Supplementary Fig. 47 source data): 3.833
- Th-T fluorescence, mean of three wells (time-course reading M116, Supplementary Fig. 47 source data): 3.836

From article PMC7156458, “Synthetic biology based construction of biological activity-related library of fungal decalin-containing diterpenoid pyrones” (Nature Communications, 2020)
